Measured values: ChEMBL document CHEMBL5038629, “Light-Triggered Fluorescence Self-Reporting Nitric Oxide Release from Coumarin Analogues for Accelerating Wound Healing and Synergistic Antimicrobial Applications” (J Med Chem, 2022)
The source made the active and inactive calls. The calls are words filed in the database; no cut-off is given here.

Columns and labels:
[1] = NO releasing activity upon exposure to UV light irradiation in presence of NaSO4 by fluorescence based analysis; format: functional
[2] = Stability of the compound in human HepG2 cells at 10 uM by DAQ probe based fluorescence analysis; format: ADME, cell-based; details: hepg2, 10 µM
Staphylococcus aureus [3] = assay: Inhibition of biofilm formation in methicillin-resistant Staphylococcus aureus assessed as decrease in biofilm mass at 10 uM upon exposure to UV light irradiation and measured after 48 hrs by dilution plate coating method; format: functional; details: light or radiation study
[4] = NO releasing activity upon exposure to UV light irradiation in presence of His by fluorescence based analysis; format: functional
[5] = NO releasing activity assessed as NO release efficiency at 80 uM by Griess assay relative to NaNO2; format: functional
[6] = NO releasing activity upon exposure to UV light irradiation at 50 to 70 degC measured after 4 to 8 hrs by fluorescence based analysis; format: functional; details: time 4-8 hrs
L02 [7] = assay: Cytotoxicity against human L02 cells assessed as reduction in cell viability upto 60 uM measured after 8 hrs by CCK8 assay; format: functional, cell-based; details: dose microM <=60, time 8.0 hrs
[8] = NO releasing activity in Tol solvent upon exposure to UV light irradiation by fluorescence based analysis; format: functional
[9] = NO releasing activity upon exposure to UV light irradiation in presence of Arg by fluorescence based analysis; format: functional
Staphylococcus aureus [10] = assay: Inhibition of biofilm formation in methicillin-resistant Staphylococcus aureus assessed as increase in planktonic bacteria at 10 uM upon exposure to UV light irradiation and measured after 48 hrs in presence of levofloxacin by NB plate based imaging analysis; format: functional; design: scale not given: the % may be the effect or the level left
[11] = Stability of the compound in human L02 cells at 10 uM by DAQ probe based fluorescence analysis; format: ADME, cell-based; details: l02, 10 µM
Mus musculus [12] = assay: Induction of angiogenesis in methicillin-resistant Staphylococcus aureus infected CD1 mouse assessed as increase in CD31 surface expression in skin by measuring increase in green fluorescence intensity using UV light-irradiated compound at 10 uM, sc on days 0, 3, 7 and 14 in presence of levofloxacin and measured on day 14 by immunofluorescence staining based analysis; format: functional, organism-based; details: time 15.0 day
[13] = NO releasing activity assessed as NO release efficiency at 10 uM by Griess assay relative to NaNO2; format: functional
[14] = NO releasing activity upon exposure to UV light irradiation in presence of Ser by fluorescence based analysis; format: functional
[15] = NO releasing activity in DMK solvent upon exposure to UV light irradiation by fluorescence based analysis; format: functional
Staphylococcus aureus [16] = assay: Inhibition of biofilm formation in methicillin-resistant Staphylococcus aureus assessed as increase in planktonic bacteria at 10 uM upon exposure to UV light irradiation and measured after 48 hrs by NB plate based imaging analysis; format: functional, organism-based
[17] = NO releasing activity upon exposure to UV light irradiation in presence of Asp by fluorescence based analysis; format: functional
[18] = NO releasing activity assessed as NO release efficiency at 100 uM by Griess assay relative to NaNO2; format: functional
[19] = NO releasing activity assessed as NO release efficiency at 60 uM by Griess assay relative to NaNO2; format: functional
Staphylococcus aureus [20] = assay: Inhibition of biofilm formation in methicillin-resistant Staphylococcus aureus assessed as decrease in biofilm mass at 10 uM upon exposure to UV light irradiation and measured after 48 hrs in presence of levofloxacin by dilution plate coating method; format: functional; details: light or radiation study
[21] = NO releasing activity in Diox-solvent upon exposure to UV light irradiation by fluorescence based analysis; format: functional
[22] = NO releasing activity upon exposure to UV light irradiation at powers from 3 to 15 mW/cm2 by fluorescence based analysis; format: functional
RAW264.7 [23] = assay: Cytotoxicity against mouse RAW264.7 cells assessed as reduction in cell viability upto 60 uM measured after 8 hrs by CCK8 assay; format: functional, cell-based; details: dose microM <=60, time 8.0 hrs
[24] = NO releasing activity in MeOH solvent upon exposure to UV light irradiation by fluorescence based analysis; format: functional
[25] = NO releasing activity upon exposure to UV light irradiation in presence of Phe by fluorescence based analysis; format: functional
[26] = NO releasing activity assessed as NO release efficiency at 40 uM by Griess assay relative to NaNO2; format: functional
[27] = Photolysis of compound in DMSO/PBS assessed as 4-methyl-7-(2-nitrobenzylamino)-2H-chromen-2-one and AMC formation along with NO release upon exposure to UV light by mass spectrometry; format: functional
[28] = Photolysis of compound in DMSO/PBS assessed as 4-methyl-7-(2-nitrobenzylamino)-2H-chromen-2-one and AMC formation along with NO release upon exposure to UV light and measured after 30 mins by HPLC analysis; format: functional
[29] = NO releasing activity in EA solvent upon exposure to UV light irradiation by fluorescence based analysis; format: functional
Staphylococcus aureus [30] = assay: Antibacterial activity against methicillin-resisitant Staphylococcus aureus assessed as wrinkled bacterial membrane formation at 10 uM incubated for 5 hrs followed by exposure to UV light irradiation for 1 min in presence of levofloxacin by scanning electron microscopy; format: functional, organism-based; details: time 301.0 min
[31] = NO releasing activity assessed as NO release efficiency at 20 uM by Griess assay relative to NaNO2; format: functional
[32] = NO releasing activity at 20 uM upon exposure to UV light irradiation for 5 mins by EPR spectroscopy; format: functional
[33] = NO releasing activity assessed as increase in fluorescence intensity at 420 nm upon exposure to UV light measured after 0 to 5 mins by fluorescence based analysis; format: functional; details: time 0-5 min
[34] = NO releasing activity upon exposure to UV light irradiation in presence of Hcy by fluorescence based analysis; format: functional
HUVEC [35] = assay: Induction of angiogenesis in human HUVEC cells assessed as increase in cell migration rate upon UV light irradiation and measured after 12 to 24 hrs by cell scratch test; format: functional, cell-based; details: time 12-24 hrs
[36] = NO releasing activity upon exposure to UV light irradiation in presence of Na2S by fluorescence based analysis; format: functional
RAW264.7 [37] = assay: Induction of angiogenesis in mouse RAW264.7 cells assessed as increase in cell proliferation upto 60 uM upon exposure to UV light irradiation and measured after 8 hrs by CCK8 assay; format: functional, cell-based; details: dose microM <=60, time 8.0 hrs
[38] = NO releasing activity in TCM solvent upon exposure to UV light irradiation by fluorescence based analysis; format: functional
[39] = NO releasing activity upon exposure to UV light irradiation in presence of GSH by fluorescence based analysis; format: functional
[40] = NO releasing activity upon exposure to UV light irradiation in presence of HClO by fluorescence based analysis; format: functional
HepG2 = assay: NO releasing activity in human HepG2 cells assessed as increase in red fluorescence intensity at 10 uM upon exposure to UV light irradiation for 10s by DAQ probe based fluorescence analysis; format: ADME, cell-based; details: hepg2, 10 s
[41] = NO releasing activity upon exposure to UV light irradiation at pH 4 to 8 by fluorescence based analysis; format: functional
[42] = NO releasing activity assessed as increase in fluorescence intensity upon exposure to UV light at 0 to 18 uM by fluorescence based analysis; format: functional; details: dose 0-18 µM
HUVEC [43] = assay: Cytotoxicity against human HUVEC cells assessed as reduction in cell viability upto 60 uM measured after 8 hrs by CCK8 assay; format: functional, cell-based; details: dose microM <=60, time 8.0 hrs
[44] = Toxicity in methicillin-resistant Staphylococcus aureus-infected CD1 mouse assessed as change in body weight using UV light-irradiated compound at 10 uM, sc on days 0, 3, 7 and 14; format: organism-based; details: in vivo, 360 h, time 15 day
[45] = NO releasing activity upon exposure to UV light irradiation in presence of Cys by fluorescence based analysis; format: functional
Mus musculus [46] = assay: Acceleration of wound healing in methicillin-resistant Staphylococcus aureus infected CD1 mouse assessed as boosted collagen deposition and granulation tissue in skin using UV light-irradiated compound at 10 uM, sc on days 0, 3, 7 and 14 in presence of levofloxacin and measured on day 14 by H and E staining based analysis; format: functional, organism-based; details: time 15.0 day
L02 [47] = assay: Induction of angiogenesis in human L02 cells assessed as increase in cell proliferation upto 60 uM upon exposure to UV light irradiation and measured after 8 hrs by CCK8 assay; format: functional, cell-based; details: dose microM <=60, time 8.0 hrs
L02 [48] = assay: NO releasing activity in human L02 cells assessed as increase in red fluorescence intensity at 10 uM upon exposure to UV light irradiation for 10s by DAQ probe based fluorescence analysis; format: ADME, cell-based; details: l02, 10 s
Staphylococcus aureus [49] = assay: Inhibition of biofilm formation in methicillin-resistant Staphylococcus aureus assessed as biofilm dispersal effect at 10 uM incubated for 5 hrs followed by exposure to UV light irradiation for 1 min by crystal violet staining based analysis; format: functional; design: scale not given: the % may be the effect or the level left; details: time 301 min, 5.017 h
Mus musculus [50] = assay: Acceleration of wound healing in methicillin-resistant Staphylococcus aureus infected CD1 mouse assessed as boosted collagen deposition and granulation tissue in skin using UV light-irradiated compound at 10 uM, sc on days 0, 3, 7 and 14 and measured on day 14 by H and E staining based analysis; format: functional, organism-based; details: time 15.0 day
[51] = NO releasing activity upon exposure to UV light irradiation in presence of […] by fluorescence based analysis; format: functional
[52] = NO releasing activity upon exposure to UV light irradiation in presence of Ala by fluorescence based analysis; format: functional
[53] = NO releasing activity in DMSO solvent upon exposure to UV light irradiation by fluorescence based analysis; format: functional
[54] = NO releasing activity in PBS buffer of 20% DMSO at 20 uM upon exposure to UV light irradiation by amperometric method; format: functional
[55] = NO releasing activity at 100 uM upon exposure to UV light irradiation by DAF-2 probe based fluorescence analysis; format: functional
Staphylococcus aureus [56] = assay: Inhibition of biofilm formation in methicillin-resistant Staphylococcus aureus assessed as biofilm dispersal effect at 10 uM incubated for 5 hrs followed by exposure to UV light irradiation for 1 min in presence of levofloxacin by crystal violet staining based analysis; format: functional; design: scale not given: the % may be the effect or the level left; details: time 301 min, 5.017 h
[57] = NO releasing activity assessed as increase in fluorescence intensity upon exposure to UV light at 1 to 10 uM measured after 30 mins by fluorescence based analysis; format: functional; details: dose 1-10 µM
HUVEC [58] = assay: Induction of angiogenesis in human HUVEC cells assessed as increase in tube formation upon exposure to UV light irradiation measured after 24 hrs; format: functional, cell-based
[59] = NO releasing activity in IPA solvent upon exposure to UV light irradiation by fluorescence based analysis; format: functional
[60] = NO releasing activity in CAN solvent upon exposure to UV light irradiation by fluorescence based analysis; format: functional
HUVEC [61] = assay: Induction of angiogenesis in human HUVEC cells assessed as increase in cell proliferation upto 60 uM upon exposure to UV light irradiation and measured after 8 hrs by CCK8 assay; format: functional, cell-based; details: dose microM <=60, time 8.0 hrs
Mus musculus [62] = assay: Acceleration of wound healing in methicillin-resistant Staphylococcus aureus infected CD1 mouse assessed as increase in wound healing rate using UV light-irradiated compound at 10 uM, sc on days 0, 3, 7 and 14 in presence of 10 uM levofloxacin; format: functional, organism-based; details: time 15.0 day
[63] = NO releasing activity upon exposure to UV light irradiation in presence of Trp by fluorescence based analysis; format: functional

Cc1cc(=O)oc2cc(N(Cc3ccccc3[N+](=O)[O-])N=O)ccc12
Drug metabolism [1]: Metabolite detected | Stability [2]: Stable | inhibition at 10 µM (Staphylococcus aureus [3]): 28% | Drug metabolism [4]: Metabolite detected | Drug metabolism [5]: 97.6% | Drug metabolism [6]: Metabolite detected | Activity (L02 [7]): Active | Drug metabolism [8]: Metabolite detected | Drug metabolism [9]: Metabolite detected | Activity (Staphylococcus aureus [10]): 160% | Stability [11]: Stable | Activity (Mus musculus [12]): Active | Drug metabolism [13]: 99% | Drug metabolism [14]: Metabolite detected | Drug metabolism [15]: Metabolite detected | Activity (Staphylococcus aureus [16]): Active | Drug metabolism [17]: Metabolite detected | Drug metabolism [18]: 93% | Drug metabolism [19]: 96.9% | inhibition at 10 µM (Staphylococcus aureus [20]): 54% | Drug metabolism [21]: Metabolite detected | Drug metabolism [22]: Metabolite detected | Activity (RAW264.7 [23]): Active | Drug metabolism [24]: Metabolite detected | Drug metabolism [25]: Metabolite detected | Drug metabolism [26]: 98.6% | Drug metabolism [27]: Metabolite detected | Drug metabolism [28]: Metabolite detected | Drug metabolism [29]: Metabolite detected | Activity (Staphylococcus aureus [30]): Active | Drug metabolism [31]: 99.2% | Drug metabolism [32]: Metabolite detected | Drug metabolism [33]: Metabolite detected | Drug metabolism [34]: Metabolite detected | Activity (HUVEC [35]): Active | Drug metabolism [36]: Metabolite detected | Activity (RAW264.7 [37]): Active | Drug metabolism [38]: Metabolite detected | Drug metabolism [39]: Metabolite detected | Drug metabolism [40]: Metabolite detected | Drug metabolism (HepG2): Metabolite_Detected | Drug metabolism [41]: Metabolite detected | Drug metabolism [42]: Metabolite detected | Activity (HUVEC [43]): Active | Activity [44]: Non-Toxic | Drug metabolism [45]: Metabolite detected | Activity (Mus musculus [46]): Active | Activity (L02 [47]): Active | Drug metabolism (L02 [48]): Metabolite_Detected | Activity (Staphylococcus aureus [49]): 15% | Activity (Mus musculus [50]): Active | Drug metabolism [51]: Metabolite detected | Drug metabolism [52]: Metabolite detected | Drug metabolism [53]: Metabolite detected | Drug metabolism [54]: Metabolite detected | Drug metabolism [55]: Metabolite detected | Activity (Staphylococcus aureus [56]): 74% | Drug metabolism [57]: Metabolite detected | Activity (HUVEC [58]): Active | Drug metabolism [59]: Metabolite detected | Drug metabolism [60]: Metabolite detected | Activity (HUVEC [61]): Active | Activity (Mus musculus [62]): Active | Drug metabolism [63]: Metabolite detected
